Data from ChEMBL document CHEMBL3108668, “Antitumor activity of jujuboside B and the underlying mechanism via induction of apoptosis and autophagy” (J Nat Prod, 2014).
Activity calls are given as the source filed them. The rule behind the calls is not given here.

What was measured:
[1] = tested on: AGS; test: Cell cycle arrest in human AGS cells assessed as accumulation at sub G1 phase at 100 uM after 24 hrs by propidium iodide staining-based flow cytometry in presence of bafilomycin A1; type: functional
[2] = tested on: AGS; test: Cytotoxicity against human AGS cells at 100 uM after 24 hrs by MTT assay in presence of bafilomycin A1; type: functional, cell-based
[3] = tested on: HCT-116; test: Induction of autophagy in human HCT116 cells assessed as increase in LC3-2 level at 50 uM after 24 hrs by Western blotting analysis; type: functional, cell-based
[4] = tested on: HCT-116; test: Induction of autophagy in human HCT116 cells assessed as massive vacuole formation at 50 uM after 24 hrs by acridine orange staining-based fluorescence microscopy in presence of bafilomycin A1; type: functional, cell-based
[5] = tested on: AGS; test: Induction of autophagy in human AGS cells assessed as massive vacuole formation at 50 uM after 24 hrs by acridine orange staining-based fluorescence microscopy in presence of bafilomycin A1; type: functional, cell-based
[6] = tested on: AGS; test: Induction of autophagy in human AGS cells assessed as massive vacuole formation at 50 uM after 24 hrs by fluorescence microscopy; type: functional, cell-based
[7] = tested on: AGS; test: Induction of apoptosis in human AGS cells assessed as reduction of FasL level at 100 uM after 24 hrs by Western blotting analysis in presence of SB202190; type: functional, cell-based
[8] = tested on: AGS; test: Induction of apoptosis in human AGS cells assessed as reduction of caspase8 activation at 100 uM after 24 hrs by Western blotting analysis in presence of SB202190; type: functional, cell-based
[9] = tested on: AGS; test: Induction of apoptosis in human AGS cells assessed as decrease in pERK level at 25 to 150 uM after 24 hrs by Western blotting analysis; type: functional, cell-based
[10] = tested on: AGS; test: Induction of apoptosis in human AGS cells assessed as caspase-9 activation at 25 to 150 uM after 24 hrs by Western blotting analysis; type: functional, cell-based
[11] = tested on: AGS; test: Induction of apoptosis in human AGS cells assessed as procaspase-9 level at 25 to 150 uM after 24 hrs by Western blotting analysis; type: functional, cell-based
[12] = tested on: AGS; test: Induction of apoptosis in human AGS cells assessed as increase in FasL level at 25 to 150 uM after 24 hrs by Western blotting analysis; type: functional, cell-based
[13] = tested on: AGS; test: Induction of apoptosis in human AGS cells assessed as PARP-1 cleavage after 24 hrs by Western blotting analysis; type: functional, cell-based
[14] = tested on: Mus musculus; test: Toxicity in BALB/c nude mouse xenografted with human HCT116 cells assessed as change in body weight at 40 mg/kg, ip administered 3 times a week for 5 weeks; type: organism-based, HCT-116; parameters: dose 40 mg/kg, route intraperitoneal; conditions: in vivo, 840 h
[15] = tested on: HCT-116; test: Induction of apoptosis in human HCT116 cells assessed as apoptotic cells after 24 hrs by annexin V-FITC/propidium iodide staining-based flow cytometry; type: functional, cell-based
[16] = tested on: AGS; test: Cell cycle arrest in human AGS cells assessed as accumulation at sub G1 phase at 200 uM after 24 hrs by propidium iodide staining-based flow cytometry; type: functional
[17] = tested on: AGS; test: Induction of apoptosis in human AGS cells assessed as apoptotic cells at 100 uM after 24 hrs by annexin V-FITC/propidium iodide staining-based flow cytometry; type: functional
[18] = tested on: AGS; test: Induction of apoptosis in human AGS cells assessed as apoptotic cells at 25 uM after 24 hrs by annexin V-FITC/propidium iodide staining-based flow cytometry; type: functional
[19] = tested on: HCT-116; test: Induction of apoptosis in human HCT116 cells assessed as late apoptotic cells at 150 uM after 24 hrs by annexin V-FITC/propidium iodide staining-based flow cytometry (reference value: 2.71%); type: functional
[20] = tested on: HCT-116; test: Induction of apoptosis in human HCT116 cells assessed as early apoptotic cells at 150 uM after 24 hrs by annexin V-FITC/propidium iodide staining-based flow cytometry (reference value: 3.61%); type: functional
[21] = tested on: HCT-116; test: Induction of apoptosis in human HCT116 cells assessed as early apoptotic cells at 50 uM after 24 hrs by annexin V-FITC/propidium iodide staining-based flow cytometry (reference value: 3.61%); type: functional
[22] = tested on: AGS; test: Induction of apoptosis in human AGS cells assessed as necrotic cells at 150 uM after 24 hrs by annexin V-FITC/propidium iodide staining-based flow cytometry (reference value: 0.12%); type: functional
[23] = tested on: AGS; test: Induction of apoptosis in human AGS cells assessed as necrotic cells at 100 uM after 24 hrs by annexin V-FITC/propidium iodide staining-based flow cytometry (reference value: 0.12%); type: functional
[24] = tested on: AGS; test: Induction of apoptosis in human AGS cells assessed as necrotic cells at 50 uM after 24 hrs by annexin V-FITC/propidium iodide staining-based flow cytometry (reference value: 0.12%); type: functional
[25] = tested on: AGS; test: Induction of apoptosis in human AGS cells assessed as necrotic cells at 25 uM after 24 hrs by annexin V-FITC/propidium iodide staining-based flow cytometry (reference value: 0.12%); type: functional
[26] = tested on: AGS; test: Induction of apoptosis in human AGS cells assessed as late apoptotic cells at 150 uM after 24 hrs by annexin V-FITC/propidium iodide staining-based flow cytometry (reference value: 7.3%); type: functional
[27] = tested on: AGS; test: Induction of apoptosis in human AGS cells assessed as late apoptotic cells at 100 uM after 24 hrs by annexin V-FITC/propidium iodide staining-based flow cytometry (reference value: 7.3%); type: functional
[28] = tested on: AGS; test: Induction of apoptosis in human AGS cells assessed as early apoptotic cells at 150 uM after 24 hrs by annexin V-FITC/propidium iodide staining-based flow cytometry (reference value: 6.6%); type: functional
[29] = tested on: HCT-116; test: Induction of apoptosis in human HCT116 cells assessed as formation of apoptotic bodies at >100 uM after 24 hrs by acridine orange staining-based microscopy; type: functional, cell-based
[30] = tested on: HCT-116; test: Induction of apoptosis in human HCT116 cells assessed as cell shrinkage at >100 uM after 24 hrs by acridine orange staining-based microscopy; type: functional
[31] = tested on: HCT-116; test: Induction of apoptosis in human HCT116 cells assessed as cell rounding at >100 uM after 24 hrs by acridine orange staining-based microscopy; type: functional
[32] = tested on: AGS; test: Induction of apoptosis in human AGS cells assessed as formation of apoptotic bodies at >100 uM after 24 hrs by acridine orange staining-based microscopy; type: functional, cell-based
[33] = tested on: AGS; test: Induction of apoptosis in human AGS cells assessed as membrane blebbing at >100 uM after 24 hrs by acridine orange staining-based microscopy; type: functional, cell-based
[34] = tested on: AGS; test: Induction of apoptosis in human AGS cells assessed as cell shrinkage at >100 uM after 24 hrs by acridine orange staining-based microscopy; type: functional
[35] = Cytotoxicity against human Chang cells after 24 hrs by MTT assay; type: cell-based
[36] = tested on: HCT-116; test: Cytotoxicity against human HCT116 cells after 24 hrs by MTT assay; type: functional, cell-based
[37] = tested on: AGS; test: Cytotoxicity against human AGS cells after 24 hrs by MTT assay; type: functional, cell-based
[38] = tested on: AGS; test: Induction of autophagy in human AGS cells assessed as massive vacuole formation at 50 uM after 24 hrs by acridine orange staining-based fluorescence microscopy; type: functional, cell-based
[39] = tested on: AGS; test: Induction of apoptosis in human AGS cells assessed as reduction of caspase3 activation at 100 uM after 24 hrs by Western blotting analysis in presence of SP600125; type: functional, cell-based

## CC(C)=C[C@H]1C[C@](C)(O)[C@@H]2[C@H]3CC[C@@H]4[C@@]5(C)CC[C@H](O[C@@H]6OC[C@H](O)[C@H](O[C@@H]7O[C@H](CO)[C@@H](O)[C@H](O)[C@H]7O[C@@H]7OC[C@@H](O)[C@H](O)[C@H]7O)[C@H]6O[C@@H]6O[C@@H](C)[C@H](O)[C@@H](O)[C@H]6O)C(C)(C)[C@@H]5CC[C@@]4(C)[C@@]34CO[C@@]2(C4)O1
[1]
  Activity: Active
[2]
  Activity: Active
[3]
  Activity: Active
[4]
  Activity: inactive
[5]
  Activity: inactive
[6]
  Activity: Active
[7]
  Activity: inactive
[8]
  Activity: inactive
[9]
  Activity: inactive
[10]
  Activity: inactive
[11]
  Activity: inactive
[12]
  Activity: Active
[13]
  Activity: Dose-dependent effect
[14]
  Activity: Non-toxic
[15]
  Activity: Dose-dependent effect
[16]
  Activity: 49.65%
[17]
  Activity: 28.85%
[18]
  Activity: 10.81%
[19]
  Activity: 17.9%
[20]
  Activity: 43.39%
[21]
  Activity: 6.65%
[22]
  Activity: 1.57%
[23]
  Activity: 1.06%
[24]
  Activity: 0.53%
[25]
  Activity: 0.55%
[26]
  Activity: 12.12%
[27]
  Activity: 12.44%
[28]
  Activity: 27.43%
[29]
  Activity: Active
[30]
  Activity: Active
[31]
  Activity: Active
[32]
  Activity: Active
[33]
  Activity: Active
[34]
  Activity: Active
[35]
  IC50: 182 µM
[36]
  Activity: Dose-dependent effect
[36]; HCT-116, 24 h
  IC50: 114 µM
[37]
  Activity: Dose-dependent effect
  IC50: 107 µM
[38]
  Activity: Active
[39]
  Activity: inactive
